± gives the standard deviation of the averaged measurements.
What was measured:
Test in all cases: level (log10 ratio to DMSO vehicle control); higher = higher biomarker level / cell amount than vehicle control
Conditions in all cases: in DMSO
[1] = compound: CC(C)(C)C(=O)CC(=O)C(F)(F)C(F)(F)C(F)(F)F [(Heptafluorobutanoyl)pivaloylmethane]
Procedure: (§1)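 BioMAP Diversity Plus panel of 12 human primary cell co-culture systems (3C, 4H, LPS, SAg, BT, BF4T, BE3C, CASM3C, HDF3CGF, KF3CT, MyoF, Mphg). Compounds were added 1 h before stimulation and left for 24 h (MyoF 48 h; BT 72 h for soluble read-outs or 6 d for IgG). Biomarkers were read by ELISA, cytotoxicity by SRB, PBMC viability and proliferation by Alamar Blue. Each well value was divided by the mean of 8 DMSO control wells on the same plate and log10 transformed; duplicate blinded samples were tested at 4 concentrations.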

[2] = compound: FC(F)(F)C(F)(F)C(F)(F)C(F)(F)C(F)(F)C(F)(F)C(F)(F)CCI [1-Iodo-1H,1H,2H,2H-perfluorononane]
Procedure: as §1

Perfluorooctanamide = compound: NC(=O)C(F)(F)C(F)(F)C(F)(F)C(F)(F)C(F)(F)C(F)(F)C(F)(F)F [Perfluorooctanamide]
Procedure: as §1

[3] = compound: O=C(O)C(F)(F)C(F)(F)C(F)(F)C(F)(F)C(F)(F)C(F)(F)C(F)(F)C(F)(F)C(F)(F)C(F)(F)C(F)(F)C(F)(F)C(F)(F)F [Perfluorotetradecanoic acid]
Procedure: as §1

[4] = compound: O=C(O)CCC(F)(F)C(F)(F)C(F)(F)C(F)(F)C(F)(F)F [2H,2H,3H,3H-Perfluorooctanoic acid]
Procedure: as §1

[5] = compound: O=S(=O)(O)C(F)(F)C(F)(F)C(F)(F)C(F)(F)F [Perfluorobutanesulfonic acid]
Procedure: as §1

1H,1H-Heptafluorobutanol = compound: OCC(F)(F)C(F)(F)C(F)(F)F [1H,1H-Heptafluorobutanol]
Procedure: as §1

Test System	level (log10) ([1]; 6700 nM)	level (log10) ([1]; 20000 nM)	level (log10) ([1]; 60000 nM)	level (log10) ([2]; 6700 nM)	level (log10) ([2]; 20000 nM)	level (log10) (Perfluorooctanamide; 6700 nM)	level (log10) (Perfluorooctanamide; 20000 nM)	level (log10) (Perfluorooctanamide; 60000 nM)	level (log10) ([3]; 6700 nM)	level (log10) ([3]; 20000 nM)	level (log10) ([4]; 6700 nM)	level (log10) ([4]; 20000 nM)	level (log10) ([4]; 60000 nM)	level (log10) ([5]; 6700 nM)	level (log10) ([5]; 20000 nM)	level (log10) ([5]; 60000 nM)	level (log10) (1H,1H-Heptafluorobutanol; 6700 nM)	level (log10) (1H,1H-Heptafluorobutanol; 20000 nM)	level (log10) (1H,1H-Heptafluorobutanol; 60000 nM)
MyoF:TIMP-1	0.0095 ± 0.028	0.0135 ± 0.06	0.009 ± 0.047	-0.002 ± 0.054	0.0165 ± 0.042	-0.016 ± 0.014	0.0075 ± 0.012	-0.0375 ± 0.0021	0.0075 ± 0.049	0.0345 ± 0.013	-0.035 ± 0.088	-0.0365 ± 0.087	-0.0155 ± 0.071	0.012 ± 0.014	0.009 ± 0.0085	0.0205 ± 0.00071	0.0115 ± 0.028	0.014 ± 0.035	0.025 ± 0.03
MyoF:alpha-SM Actin	-0.006 ± 0.05	-0.002 ± 0.034	-0.0215 ± 0.0021	-0.016 ± 0.02	-0.0435 ± 0.0035	-0.0095 ± 0.005	-0.023 ± 0.017	-0.045 ± 0.0085	-0.008	-0.032 ± 0.0085	0.048 ± 0.024	0.017 ± 0.013	0.0205 ± 0.061	-0.016 ± 0.0099	-0.0265 ± 0.0078	-0.0195 ± 0.005	0.0105 ± 0.0064	-0.0045 ± 0.0078	-0.004 ± 0.02
MyoF:bFGF	0.002 ± 0.0028	0.0065 ± 0.0035	0.021 ± 0.0071	0.01 ± 0.0014	0.021 ± 0.017	-0.005 ± 0.0014	-0.0055 ± 0.015	0.007 ± 0.0014	0.0075 ± 0.00071	0.0315 ± 0.018	-0.013 ± 0.017	-0.011 ± 0.0085	-0.008 ± 0.021	0.0065 ± 0.013	0.0105 ± 0.018	-0.0065 ± 0.0064	-0.003 ± 0.0042	0.0045 ± 0.0078	0.01 ± 0.017
lMphg:CCL2/MCP-1	-0.0135 ± 0.025	-0.018 ± 0.0071	-0.0255 ± 0.021	-0.014 ± 0.0071	0.0385 ± 0.032	0.012 ± 0.013	0.001 ± 0.025	-0.0235 ± 0.035	-0.013 ± 0.014	-0.004 ± 0.0099	0.007 ± 0.016	-0.0115 ± 0.005	-0.01	0.0105 ± 0.0021	0.0105 ± 0.0078	0.0145 ± 0.025	-0.01 ± 0.0042	-0.0075 ± 0.015	-0.0295 ± 0.012
lMphg:CCL3/MIP-1alpha	-0.011 ± 0.021	-0.0185 ± 0.013	-0.067 ± 0.11	-0.001	0.045 ± 0.033	-0.0155 ± 0.0064	-0.021 ± 0.017	-0.028 ± 0.024	-0.02 ± 0.042	-0.004 ± 0.02	0.032 ± 0.052	0.0625 ± 0.081	0.0765 ± 0.053	-0.0305 ± 0.016	-0.0395 ± 0.005	-0.0135 ± 0.0092	0.0015 ± 0.019	-0.003 ± 0.037	-0.0035 ± 0.0021
